The subject of series [1] is MDA-MB-231. Nature of the series: Inhibition of cell migration in human MDA-MB-231 cells at 0.5 to 2 uM incubated for 24 hrs by phase contrast microscopy based scratch wound healing assay. It counts as functional. As to conditions: dose 0.5-2 µM, DDE = dose-dependent effect.
Series [2] relates to MDA-MB-231. Nature of the series: Induction of apoptosis in human MDA-MB-231 cells assessed as chromatin shrinkage at 0.5 to 2 uM incubated for 24 hrs by Hoechst 33258 staining based fluorescence microscopic analysis. It counts as functional, cell-based. Conditions: dose 0.5-2 µM.
Series [3] in a line: Selectivity index, ratio of IC50 for Cytotoxic activity against human MCF-10A cells to IC50 for antiproliferative activity against human NCI-ADR-RES cells. It counts as toxicity, cell-based. Conditions: MCF-10A cells versus NCI-ADR-RES cells, read-out: Ratio IC50.
The test system of series [4] is MDA-MB-231. Nature of the series: Induction of apoptosis in human MDA-MB-231 cells assessed as reduction in phosphorylated AKT level at 0.5 to 3 uM and measured after 24 hrs by Western blotting analysis. As to conditions: dose 0.5-3 µM, DDE = dose-dependent effect. It counts as functional, cell-based. A general note: In western blotting, separated proteins are transferred to a membrane and probed.

In series [5] the test system is MDA-MB-231. Nature of the series: Induction of cell cycle arrest in human MDA-MB-231 cells assessed as accumulation at G1 phase at 1 uM incubated for 24 hrs by PI/RNase staining based flow cytometry analysis (reference value: 54.8%). It counts as functional. (In general: In flow cytometry, cells or beads pass a laser one at a time.)
Series [6] has as its system MDA-MB-231. Nature of the series: Inhibition of colony formation in human MDA-MB-231 cells assessed as reduction in number of colonies at 2 uM incubated for 10 days by crystal violet staining based assay. It counts as functional, cell-based. Conditions: time 10.0 day.
Series [7] can be described thus: Metabolic stability in rat liver microsomes assessed as intrinsic clearance incubated for 60 mins by TSQ staining based UPLC-MS analysis. It counts as ADME, Microsome. As to conditions: liver microsomes, read-out: CLH. (Liver microsomes are a subcellular fraction often used to study metabolism.)
For series [8], the system named is MDA-MB-231. Nature of the series: Anti-metastasis activity against human MDA-MB-231 cells assessed as decrease in phosphorylated Smad 3 expression level at >= 1 uM measured after 24 hrs by Western blotting analysis. It counts as functional, cell-based.
The test system of series [9] is MDA-MB-231. Nature of the series: Induction of apoptosis in human MDA-MB-231 cells assessed as downregulation of p53 protein expression at 0.5 to 3 uM measured after 24 hrs by Western blotting analysis. It counts as functional, cell-based. Conditions: dose 0.5-3 µM, DDE = dose-dependent effect.
In series [10] the test system is MDA-MB-231. Briefly: Induction of apoptosis in human MDA-MB-231 cells assessed as increase in total apoptotic cells at 1 uM measured after 24 hrs by Annexin V-FITC/PI staining based flow cytometry analysis. It counts as functional.
Series [11] has as its system MDA-MB-231. Briefly: Induction of apoptosis in human MDA-MB-231 cells assessed as upregulation of Bax protein expression at 0.5 to 3 uM measured after 24 hrs by Western blotting analysis. Conditions: dose 0.5-3 µM, DDE = dose-dependent effect. It counts as functional, cell-based.
Series [12] has as its system MDA-MB-231. Briefly: Induction of apoptosis in human MDA-MB-231 cells assessed as nucleus fragmentation at 0.5 to 2 uM incubated for 24 hrs by Hoechst 33258 staining based fluorescence microscopic analysis. It counts as functional, cell-based. As to conditions: dose 0.5-2 µM.
Series [13] relates to MDA-MB-231. Nature of the series: Anti-metastasis activity against human MDA-MB-231 cells assessed as inhibition of TGF-beta induced metastasis at 0.5 to 2 uM measured after 24 hrs by scratch wound healing assay. It counts as functional, cell-based. Conditions: dose 0.5-2 µM.
The subject of series [14] is MDA-MB-231. Nature of the series: Induction of apoptosis in human MDA-MB-231 cells assessed as increase in total apoptotic cells at 2 uM measured after 24 hrs by Annexin V-FITC/PI staining based flow cytometry analysis. It counts as functional.
The subject of series [15] is MDA-MB-231. Briefly: Inhibition of colony formation in human MDA-MB-231 cells assessed as reduction in size of colonies at 2 uM for 10 days by crystal violet staining based assay. It counts as functional, cell-based. As to conditions: time 10.0 day.
The test system of series [16] is MDA-MB-231. Nature of the series: Induction of cell cycle arrest in human MDA-MB-231 cells assessed as downregulation of CDK4 gene expression at 2 uM incubated for 24 hrs by quantitative RT-PCR analysis relative to control. It counts as functional, cell-based.

The structures appear in SMILES notation. The source made the active and inactive calls. No cut-off for these calls is given here.

Consider `COc1ccc(/C=C/C(=O)OC/C(C)=C\C=C/[C@H](C)[C@H]2CC[C@]3(C)C[C@@H]4C(C)=CC(=O)[C@H]4/C(C=O)=C\C[C@@H]23)cc1OC`, for which, in the series with MDA-MB-231 [1], the inhibition entry is “Dde”. In addition, the outcome with MDA-MB-231 [2], in the series with MDA-MB-231 [8], in the series on MDA-MB-231 [12], with MDA-MB-231 [13] and with MDA-MB-231 [16] was Active. Also, the selectivity ratio in series [3] was 9.29. In addition, the Activity result in the series with MDA-MB-231 [4] is “Dde”; with MDA-MB-231 [5], 65.1%; with MDA-MB-231 [9], “Dde”; with MDA-MB-231 [10], 17.6%; in the series with MDA-MB-231 [11], “Dde”; with MDA-MB-231 [14], 56.4%. For the same compound, the inhibition entry in the series on MDA-MB-231 [6] and in the series with MDA-MB-231 [15] was “Active” throughout. Also, in series [7], the microsomal CLint was 14.1 µL/min/mg.

These data come from ChEMBL document CHEMBL5154844, “Synthesis and structure-activity relationship study of a potent MHO7 analogue as potential anti-triple negative breast cancer agent” (Eur J Med Chem, 2022).
